According to patent US6713098B2, “Phytochemotherapy for cancer” (priority 2001, dated 2004):

Tested on: MCF-7 cells
Assay: Cell growth inhibition by [3H]thymidine incorporation, PRPC fractions and PRPC/IEC/RPC sub-fractions
Assay type: cell-based, human
Procedure: (§1) Sub-confluent cells were serum-starved overnight and then were left untreated, i.e., no serum (−), were treated with serum (+) or with isolated V. amygdalina fractions 8, 9, 10, 14, 15, 16, 17, 18, 19, or 20 for 18 hours. Following incubation, all cells were pulsed with 1 μCi/ml [^3H]thymidine for an additional 4-6 hours as described in Example 2. The results represent the mean ±SD of three independent experiments. *P<0.05; **P<0.01.
as §1, with “100 μg/ml of” for “isolated”, “fractions” for “fractions 8, 9, 10, 14,”
Sub-confluent cells were serum-starved overnight and then were left untreated, i.e., no serum (−), were treated with serum (+) or with 100 ng/ml of V. amygdalina fractions 19-5-16, 19-5-17, or 19-5-13 for 18 hours. […]
Fraction 19 of the PRPC separation described in Example 3 was subjected to IEC fractionation as described in Example 4 to produce 10 IEC sub-fractions designated IEC sub-fractions 19-1 to 19-10. […] Finally, Two RPC sub-fractions, specifically 19-5-16 and 19-5-17, were further analyzed and shown to be pure peptides. […]

With 19-5-16 (DTKDVVNVTG) the “inhibition of cell DNA synthesis” value (100 nanograms/ml, MCF-7, FIG. 5) was 4 fold and the “potency in growth inhibition assay (in words)” value (RPC sub-fractions of 19-5, assay as in Example 6) was “exceptionally high potency”.
